PubChem BioAssay (NCI)
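Results reflect a 48-hour exposure of cells in 96-well plates to compound at five concentrations. TGI marks complete inhibition of growth.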

Assays:
Test in all cases: NCI anticancer screen, dose series, 48 h
786-0 renal = tested on: 786-0 renal
A498 renal = tested on: A498 renal
A549 NSCLC = tested on: A549 NSCLC
ACHN renal = tested on: ACHN renal
BT-549 breast = tested on: BT-549 breast
CAKI-1 renal = tested on: CAKI-1 renal
CCRF-CEM leukemia = tested on: CCRF-CEM leukemia
COLO 205 colon = tested on: COLO 205 colon
DU-145 prostate = tested on: DU-145 prostate
EKVX NSCLC = tested on: EKVX NSCLC
HCC-2998 colon = tested on: HCC-2998 colon
HCT-116 colon = tested on: HCT-116 colon
HCT-15 colon = tested on: HCT-15 colon
HL-60(TB) leukemia = tested on: HL-60(TB) leukemia
HOP-62 NSCLC = tested on: HOP-62 NSCLC
HOP-92 NSCLC = tested on: HOP-92 NSCLC
HS 578T breast = tested on: HS 578T breast
HT29 colon = tested on: HT29 colon
IGROV1 ovarian = tested on: IGROV1 ovarian
K-562 leukemia = tested on: K-562 leukemia
KM12 colon = tested on: KM12 colon
LOX IMVI melanoma = tested on: LOX IMVI melanoma
M14 melanoma = tested on: M14 melanoma
MALME-3M melanoma = tested on: MALME-3M melanoma
MCF7 breast = tested on: MCF7 breast
MDA-MB-231 breast = tested on: MDA-MB-231 breast
MDA-MB-435 = tested on: MDA-MB-435
MDA-N = tested on: MDA-N
MOLT-4 leukemia = tested on: MOLT-4 leukemia
NCI-H226 lung = tested on: NCI-H226 lung
NCI-H23 lung = tested on: NCI-H23 lung
NCI-H460 lung = tested on: NCI-H460 lung
NCI-H522 lung = tested on: NCI-H522 lung
NCI/ADR-RES ovarian = tested on: NCI/ADR-RES ovarian
OVCAR-3 ovarian = tested on: OVCAR-3 ovarian
OVCAR-4 ovarian = tested on: OVCAR-4 ovarian
OVCAR-5 ovarian = tested on: OVCAR-5 ovarian
OVCAR-8 ovarian = tested on: OVCAR-8 ovarian
PC-3 prostate = tested on: PC-3 prostate
RPMI-8226 leukemia = tested on: RPMI-8226 leukemia
RXF 393 renal = tested on: RXF 393 renal
SF-268 CNS = tested on: SF-268 CNS
SF-295 CNS = tested on: SF-295 CNS
SF-539 CNS = tested on: SF-539 CNS
SK-MEL-2 melanoma = tested on: SK-MEL-2 melanoma
SK-MEL-28 melanoma = tested on: SK-MEL-28 melanoma
SK-MEL-5 melanoma = tested on: SK-MEL-5 melanoma
SK-OV-3 ovarian = tested on: SK-OV-3 ovarian
SN12C renal = tested on: SN12C renal
SNB-19 CNS = tested on: SNB-19 CNS
SNB-75 CNS = tested on: SNB-75 CNS
SR leukemia = tested on: SR leukemia
SW-620 colon = tested on: SW-620 colon
T-47D breast = tested on: T-47D breast
TK-10 renal = tested on: TK-10 renal
U251 CNS = tested on: U251 CNS
UACC-257 melanoma = tested on: UACC-257 melanoma
UACC-62 melanoma = tested on: UACC-62 melanoma
UO-31 renal = tested on: UO-31 renal

Measured: TGI

C[C@H](Nc1nc(N)c(N=O)c(=O)n1C)C(=O)O
not listed: UO-31 renal
> 10 µM: all other assays above

Cc1ccc(OP(=O)(Oc2ccc(C)cc2)N2C=Cc3ccccc3C2C#N)cc1 (stereo unspecified)
not listed: HCC-2998 colon
> 100 µM: all other assays above
